Patent US7135279B2 (priority 1992, dated 2006)

How the values were obtained:
[1] = control of morning sickness during pregnancy; cited from earlier work
[2] = biological target: T1, L-[Aba^67.95 (CO-S)^51–52]2 HIV-1 PR (Human immunodeficiency virus type 1 group M subtype B, UniProt P03369, C557A/C585A); assay: Fluorogenic assay of inhibitors against the L-ligation analog; format: biochemical; conditions: corresponding chiral substrate, 5×1C50 concentration of inhibitor
T1 construct: to form the ligated 99-residue D- and L-[(NHCH2COSCH2 CO)^51-52]; HIV-1 PR products; made in house; host or cells: total chemical synthesis: solid-phase segments 1-51 and 53-99 joined by chemical ligation
Description: (§1) The D- and L-enzymes were separately assayed by the fluorogenic assay method using the corresponding chiral substrate, in the presence of 5×1C50 concentration of inhibitor. The fluorogenic assays were performed with 15 ul aliquots (corresponding to […] protein) of each enzyme enantiomer in 100 millimolar MES buffer pH 6.5 added to a solution of […] D- or L-fluorogenic substrate in the MES buffer. The substrate sequence was 2-aminobenzoyl-Thr-Ile-Nle-Phe(p-NO2)-Gln-Arg amide (SEQ ID NO 2): it was synthesized with either D- or L-amino acid derivatives to provide the appropriate enantiomeric forms. The inhibitor Evans Blue is a non-peptide, achiral mixed competitive-uncompetitive inhibitor of the HIV-1 PR enzyme.

[3] = test system: D-[Aba^67.95 (CO-S)^51–52]2 HIV-1 PR; assay: Fluorogenic assay of inhibitors against the D-ligation analog; format: biochemical; conditions: corresponding chiral substrate, 5×1C50 concentration of inhibitor
Description: as §1

Compound: O=C1CC[C@@H](N2C(=O)c3ccccc3C2=O)C(=O)N1 (single isomer, unassigned) [D-enantiomer of thalidomide]
- sedative effect [1]: safe and effective sedative

Compound: Ac-Thr-Ile-Nle-psi[CH2NH]-Nle-Gln-Arg.amide [D-MVT101]
- inhibition of L-[Aba^67.95 (CO-S)^51–52]2 HIV-1 PR [2]: no effect
- inhibition of D-[Aba^67.95 (CO-S)^51–52]2 HIV-1 PR [3]: inhibits

Compound: Ac-Thr-Ile-Nle-psi[CH2NH]-Nle-Gln-Arg.amide [L-MVT101]
- inhibition of L-[Aba^67.95 (CO-S)^51–52]2 HIV-1 PR [2]: inhibits
- inhibition of D-[Aba^67.95 (CO-S)^51–52]2 HIV-1 PR [3]: no effect
